Assay results from the supplement of paper PMC6045584.
± gives the standard deviation of the averaged measurements.

How the values were obtained:
SOTRASTAURIN/AEB071 [1] = compound: T1, CN1CCN(c2nc(C3=C(c4c[nH]c5ccccc45)C(=O)NC3=O)c3ccccc3n2)CC1 [SOTRASTAURIN/AEB071]; experiment: surviving fraction relative to DMSO-only wells; higher = less growth inhibition; conditions: exposure time: 5 days
In short: (§1)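 Log-phase tumour cell lines were seeded at 250–500 cells per well in 384-well plates. After 24 hours they were exposed continuously for five days to inhibitors at 0.5, 1, 5, 10, 50, 100, 500 and 1000 nM. Viability was read by CellTiter-Glo luminescence after 10 minutes at room temperature, and surviving fraction is luminescence normalised to the median of DMSO-only wells. Each line was screened three times and kept only if replicate Pearson r >0.7 and median Z' >0.3.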

DASATINIB = compound: Cc1nc(Nc2ncc(C(=O)Nc3c(C)cccc3Cl)s2)cc(N2CCN(CCO)CC2)n1 [DASATINIB]; experiment: as above; conditions: exposure time: 5 days
In short: as §1

[2] = compound: CCn1c(C(=O)N(C2CC2)C2CC2)cc2c3c(ncn3C)c(Nc3cc(C)n(C)n3)nc21; experiment: area under dose-response curve of surviving fraction (unscaled, Aref=0) (surviving fraction x log10(nM)); higher = more resistant; conditions: exposure time: 5 days; dose range 0.5-1000 nM
In short: (§2)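 Three screens per tumour cell line were run in 384-well plates at eight inhibitor concentrations from 0.5 to 1000 nM over five days. Surviving fractions, from CellTiter-Glo luminescence normalised to DMSO-only wells, were fitted with 3-parameter logistic curves in the drc R package. The reported area under the curve is the unscaled activity area. It spans log10 dose, and Aref is 0.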

SOTRASTAURIN/AEB071 [3] = compound: T1, SOTRASTAURIN/AEB071; experiment: as above; conditions: exposure time: 5 days; dose range 0.5-1000 nM
In short: as §2

[4] = compound: CNCc1ccc(-c2[nH]c3cc(F)cc4c3c2CCNC4=O)cc1; experiment: as above; conditions: exposure time: 5 days; dose range 0.5-1000 nM
In short: as §2

ABIRATERONE = compound: C[C@]12CC[C@H](O)CC1=CC[C@@H]1[C@@H]2CC[C@]2(C)C(c3cccnc3)=CC[C@@H]12 [ABIRATERONE]; experiment: as above; conditions: exposure time: 5 days; dose range 0.5-1000 nM
In short: as §2

Test System | surviving fraction (SOTRASTAURIN/AEB071 [1]; 0.5 nM) | surviving fraction (SOTRASTAURIN/AEB071 [1]; 1 nM) | surviving fraction (SOTRASTAURIN/AEB071 [1]; 5 nM) | surviving fraction (SOTRASTAURIN/AEB071 [1]; 10 nM) | surviving fraction (SOTRASTAURIN/AEB071 [1]; 50 nM) | surviving fraction (SOTRASTAURIN/AEB071 [1]; 100 nM) | surviving fraction (SOTRASTAURIN/AEB071 [1]; 500 nM) | surviving fraction (SOTRASTAURIN/AEB071 [1]; 1000 nM) | surviving fraction (DASATINIB; 0.5 nM) | surviving fraction (DASATINIB; 1 nM) | surviving fraction (DASATINIB; 5 nM) | surviving fraction (DASATINIB; 10 nM) | surviving fraction (DASATINIB; 50 nM) | surviving fraction (DASATINIB; 100 nM) | surviving fraction (DASATINIB; 500 nM) | surviving fraction (DASATINIB; 1000 nM) | area under dose-response curve [2] | area under dose-response curve (SOTRASTAURIN/AEB071 [3]) | area under dose-response curve [4] | area under dose-response curve (ABIRATERONE)
RDES SOFT TISSUE | 1.16 ± 0.061 | 1.22 ± 0.13 | 1.04 ± 0.13 | 1.05 ± 0.12 | 0.953 ± 0.017 | 0.871 ± 0.056 | 0.987 ± 0.075 | 1.01 ± 0.13 | 0.849 ± 0.23 | 0.762 ± 0.2 | 0.775 ± 0.067 | 0.767 ± 0.14 | 0.981 ± 0.09 | 0.934 ± 0.057 | 0.975 ± 0.059 | 0.9887 ± 0.0031 | 4.17 | 3.42 | 3.42 | 4.04
SAOS2 BONE | 1.11 ± 0.024 | 1.06 ± 0.082 | 1.14 ± 0.054 | 1.12 ± 0.023 | 0.9 ± 0.069 | 0.836 ± 0.066 | 0.831 ± 0.079 | 0.839 ± 0.14 | 0.842 ± 0.055 | 0.788 ± 0.024 | 0.62 ± 0.017 | 0.511 ± 0.043 | 0.475 ± 0.047 | 0.384 ± 0.023 | 0.274 ± 0.032 | 0.256 ± 0.015 | 3.41 | 3.08 | 2.96 | 3.89
SCC36 HEADNECK | 1.03 ± 0.063 | 0.903 ± 0.069 | 1.03 ± 0.068 | 1.027 ± 0.0046 | 0.843 ± 0.039 | 0.77 ± 0.033 | 0.838 ± 0.033 | 0.77 ± 0.048 | 0.788 ± 0.13 | 0.676 ± 0.033 | 0.705 ± 0.078 | 0.678 ± 0.1 | 0.385 ± 0.078 | 0.19 ± 0.032 | 0.12 ± 0.013 | 0.112 ± 0.011 | 3.52 | 3.02 | 2.8 | 3.63
SCC47 HEADNECK | 1.04 ± 0.046 | 1.12 ± 0.12 | 1.16 ± 0.062 | 1.13 ± 0.14 | 1.06 ± 0.07 | 1.08 ± 0.046 | 1 ± 0.031 | 1.05 ± 0.13 | 0.961 ± 0.073 | 0.965 ± 0.067 | 0.971 ± 0.065 | 0.9 ± 0.039 | 0.698 ± 0.0083 | 0.38 ± 0.027 | 0.078 ± 0.011 | 0.0587 ± 0.0074 | 3.18 | 3.57 | 3.48 | 3.98
SCC90 HEADNECK | 1.05 ± 0.063 | 0.997 ± 0.066 | 0.925 ± 0.099 | 1.01 ± 0.1 | 0.87 ± 0.037 | 0.875 ± 0.028 | 0.708 ± 0.033 | 0.676 ± 0.072 | 0.823 ± 0.081 | 0.868 ± 0.037 | 0.803 ± 0.071 | 0.85 ± 0.18 | 0.527 ± 0.05 | 0.542 ± 0.072 | 0.433 ± 0.095 | 0.468 ± 0.053 | 3.25 | 2.96 | 3.19 | 4.01
SG43 HEADNECK | 1.21 ± 0.12 | 0.963 ± 0.1 | 0.92 ± 0.087 | 0.761 ± 0.09 | 0.961 ± 0.15 | 1.14 ± 0.21 | 1.31 ± 0.11 | 1.15 ± 0.088 | 0.98 ± 0.19 | 1.02 ± 0.16 | 0.592 ± 0.2 | 0.581 ± 0.2 | 0.337 ± 0.078 | 0.273 ± 0.13 | 0.206 ± 0.023 | 0.177 ± 0.054 | 2.97 | 3.54 | 3.46 | 3.37
